Patent publication US12544395B2, “Combination compositions comprising a beta-lactamase inhibitor and uses thereof” (priority 2018, dated 2026)

Tests used:
Format in all cases: cell-based
Settings in all cases: with inhibitor at 4 μg/mL
K. pneumoniae 11/23 LF#2 = assay: microbe, parasite or virus in culture
E. coli 25922 = assay: Broth microdilution MIC (strain enzymes: None detected)
K. pneumoniae KP 3 = assay: Broth microdilution MIC (strain enzymes: SHV-1, TEM-1)
K. pneumoniae KP 4 = assay: Broth microdilution MIC (strain enzymes: SHV-2a, SHV-5, TEM-1)
E. coli ESBL 2 = assay: Broth microdilution MIC (strain enzymes: TEM-1)
[1] = system: panel of ESBL-producing Enterobacteriaceae (40 strains); assay: Broth microdilution MIC50/MIC90 summary over the panel
E. coli SI-M004 = assay: Broth microdilution MIC (strain enzymes: SHV-2, GES-12)
K. pneumoniae KI (KCl) = assay: Broth microdilution MIC (strain enzymes: TEM-10)
E. coli SI-NO36 = assay: Broth microdilution MIC (strain enzymes: SHV-11, TEM-1)
K. pneumoniae 304487 = assay: Broth microdilution MIC (strain enzymes: SHV-12,TEM-1)
K. pneumoniae 170375 = assay: Broth microdilution MIC (strain enzymes: SHV-12, CTX-M15 and TEM-1)
K. pneumoniae ESBL 7 #2 = assay: Broth microdilution MIC (strain enzymes: SHV-12, CTX-M15, TEM-1)
E. coli 2806 = assay: Broth microdilution MIC (strain enzymes: SHV-12, TEM-1)
E. coli SI-AIRT-4 = assay: Broth microdilution MIC (strain enzymes: TEM-1)
K. pneumoniae 329633 = assay: Broth microdilution MIC (strain enzymes: SHV-5, TEM-1)
K. pneumoniae ESBL 7 #1 = assay: Broth microdilution MIC (strain enzymes: SHV-12, TEM-1)
E. coli ESBL 4 = assay: Broth microdilution MIC (strain enzymes: CTX-M15, TEM-1)
E. coli SI-LP377 = assay: microbe, parasite or virus in culture
K. pneumoniae SI-KP NO30 = assay: Broth microdilution MIC (strain enzymes: TEM-26b, SHV-60, SHV-26)
E. coli 3327 = assay: Broth microdilution MIC (strain enzymes: TEM-1, SHV-12)
K. pneumoniae ESBL 8 #2 = assay: Broth microdilution MIC (strain enzymes: SHV-12, TEM-1)

`O=C(O)[C@H]1/C(=C/CO)O[C@@H]2CC(=O)N21` [Clavulanic acid, clavulanic acid, reference compound] was tested, and the “MIC of cefalexin (LEX)” value (K. pneumoniae 11/23 LF#2) was 0.5 µg/mL, the “MIC of cefdinir (CDR)” value (K. pneumoniae 11/23 LF#2) was 0.5 µg/mL and the “MIC of cefixime (CFM)” value (K. pneumoniae 11/23 LF#2) was 2 µg/mL. The “MIC of ceftibuten (CTB)” value (K. pneumoniae 11/23 LF#2) was 0.25 µg/mL, the “MIC of cefalexin (LEX)” value (E. coli 25922) was 0.25 µg/mL and the “MIC of cefdinir (CDR)” value (E. coli 25922) was 0.25 µg/mL. For the same compound, the “MIC of cefixime (CFM)” value (E. coli 25922) was 0.5 µg/mL, the “MIC of ceftibuten (CTB)” value (E. coli 25922) was 0.5 µg/mL and the “MIC of cefalexin (LEX)” value (K. pneumoniae KP 3) was 1 µg/mL. For the same compound, the “MIC of cefdinir (CDR)” value (K. pneumoniae KP 3) was 1 µg/mL, the “MIC of cefixime (CFM)” value (K. pneumoniae KP 3) was 0.5 µg/mL and the “MIC of ceftibuten (CTB)” value (K. pneumoniae KP 3) was 0.125 µg/mL. The “MIC of cefalexin (LEX)” value (K. pneumoniae KP 4) was 0.125 µg/mL, the “MIC of cefdinir (CDR)” value (K. pneumoniae KP 4) was 0.125 µg/mL and the “MIC of cefixime (CFM)” value (K. pneumoniae KP 4) was 0.125 µg/mL. The “MIC of ceftibuten (CTB)” value (K. pneumoniae KP 4) was 2 µg/mL, the “MIC of cefalexin (LEX)” value (E. coli ESBL 2) was >32 µg/mL and the “MIC of cefdinir (CDR)” value (E. coli ESBL 2) was >32 µg/mL. For the same compound, the “MIC of cefixime (CFM)” value (E. coli ESBL 2) was 32 µg/mL, the “MIC of ceftibuten (CTB)” value (E. coli ESBL 2) was 4 µg/mL and the “Cefdinir MIC50” value [1] was 0.5 µg/mL. For the same compound, the “Cefdinir MIC90” value [1] was 2 µg/mL, the “Cefixime MIC50” value [1] was 0.5 µg/mL and the “Cefixime MIC90” value [1] was 2 µg/mL. For the same compound, the “Cefpodoxime MIC50” value [1] was 0.5 µg/mL, the “Cefpodoxime MIC90” value [1] was 4 µg/mL and the “Ceftibuten MIC50” value [1] was 0.25 µg/mL. For the same compound, the “Ceftibuten MIC90” value [1] was 2 µg/mL, the “Cephalexin MIC50” value [1] was 16 µg/mL and the “Cephalexin MIC90” value [1] was 32 µg/mL. For the same compound, the “MIC of cefalexin (LEX)” value (E. coli SI-M004) was 0.5 µg/mL, the “MIC of cefdinir (CDR)” value (E. coli SI-M004) was 0.5 µg/mL and the “MIC of cefixime (CFM)” value (E. coli SI-M004) was 1 µg/mL. For the same compound, the “MIC of ceftibuten (CTB)” value (E. coli SI-M004) was 0.5 µg/mL, the “MIC of cefalexin (LEX)” value (K. pneumoniae KI (KCl)) was 0.125 µg/mL and the “MIC of cefdinir (CDR)” value (K. pneumoniae KI (KCl)) was 0.125 µg/mL. For the same compound, the “MIC of cefixime (CFM)” value (K. pneumoniae KI (KCl)) was 0.125 µg/mL, the “MIC of ceftibuten (CTB)” value (K. pneumoniae KI (KCl)) was 0.06 µg/mL and the “MIC of cefalexin (LEX)” value (E. coli SI-NO36) was 0.25 µg/mL. The “MIC of cefdinir (CDR)” value (E. coli SI-NO36) was 0.25 µg/mL, the “MIC of cefixime (CFM)” value (E. coli SI-NO36) was 0.5 µg/mL and the “MIC of ceftibuten (CTB)” value (E. coli SI-NO36) was 0.25 µg/mL. For the same compound, the “MIC of cefalexin (LEX)” value (K. pneumoniae 304487) was 0.5 µg/mL, the “MIC of cefdinir (CDR)” value (K. pneumoniae 304487) was 0.5 µg/mL and the “MIC of cefixime (CFM)” value (K. pneumoniae 304487) was 0.25 µg/mL. For the same compound, the “MIC of ceftibuten (CTB)” value (K. pneumoniae 304487) was 0.125 µg/mL, the “MIC of cefalexin (LEX)” value (K. pneumoniae 170375) was 1 µg/mL and the “MIC of cefdinir (CDR)” value (K. pneumoniae 170375) was 1 µg/mL. The “MIC of cefixime (CFM)” value (K. pneumoniae 170375) was 0.5 µg/mL, the “MIC of ceftibuten (CTB)” value (K. pneumoniae 170375) was 0.06 µg/mL and the “MIC of cefalexin (LEX)” value (K. pneumoniae ESBL 7 #2) was >32 µg/mL. The “MIC of cefdinir (CDR)” value (K. pneumoniae ESBL 7 #2) was >32 µg/mL, the “MIC of cefixime (CFM)” value (K. pneumoniae ESBL 7 #2) was >32 µg/mL and the “MIC of ceftibuten (CTB)” value (K. pneumoniae ESBL 7 #2) was >32 µg/mL. For the same compound, the “MIC of cefalexin (LEX)” value (E. coli 2806) was 0.25 µg/mL, the “MIC of cefdinir (CDR)” value (E. coli 2806) was 0.25 µg/mL and the “MIC of cefixime (CFM)” value (E. coli 2806) was 1 µg/mL. The “MIC of ceftibuten (CTB)” value (E. coli 2806) was 0.25 µg/mL, the “MIC of cefalexin (LEX)” value (E. coli SI-AIRT-4) was 0.25 µg/mL and the “MIC of cefdinir (CDR)” value (E. coli SI-AIRT-4) was 0.25 µg/mL. For the same compound, the “MIC of cefixime (CFM)” value (E. coli SI-AIRT-4) was 0.25 µg/mL, the “MIC of ceftibuten (CTB)” value (E. coli SI-AIRT-4) was 0.5 µg/mL and the “MIC of cefalexin (LEX)” value (K. pneumoniae 329633) was 0.25 µg/mL. For the same compound, the “MIC of cefdinir (CDR)” value (K. pneumoniae 329633) was 0.25 µg/mL, the “MIC of cefixime (CFM)” value (K. pneumoniae 329633) was 0.03 µg/mL and the “MIC of ceftibuten (CTB)” value (K. pneumoniae 329633) was 0.03 µg/mL. For the same compound, the “MIC of cefalexin (LEX)” value (K. pneumoniae ESBL 7 #1) was 0.5 µg/mL, the “MIC of cefdinir (CDR)” value (K. pneumoniae ESBL 7 #1) was 0.5 µg/mL and the “MIC of cefixime (CFM)” value (K. pneumoniae ESBL 7 #1) was 0.25 µg/mL. The “MIC of ceftibuten (CTB)” value (K. pneumoniae ESBL 7 #1) was 0.125 µg/mL, the “MIC of cefalexin (LEX)” value (E. coli ESBL 4) was 1 µg/mL and the “MIC of cefdinir (CDR)” value (E. coli ESBL 4) was 1 µg/mL. The “MIC of cefixime (CFM)” value (E. coli ESBL 4) was 1 µg/mL, the “MIC of ceftibuten (CTB)” value (E. coli ESBL 4) was 0.5 µg/mL and the “MIC of cefalexin (LEX)” value (E. coli SI-LP377) was 1 µg/mL. The “MIC of cefdinir (CDR)” value (E. coli SI-LP377) was 1 µg/mL, the “MIC of cefixime (CFM)” value (E. coli SI-LP377) was 0.5 µg/mL and the “MIC of ceftibuten (CTB)” value (E. coli SI-LP377) was 0.125 µg/mL. For the same compound, the “MIC of cefalexin (LEX)” value (K. pneumoniae SI-KP NO30) was 0.125 µg/mL, the “MIC of cefdinir (CDR)” value (K. pneumoniae SI-KP NO30) was 0.125 µg/mL and the “MIC of cefixime (CFM)” value (K. pneumoniae SI-KP NO30) was 0.06 µg/mL. For the same compound, the “MIC of ceftibuten (CTB)” value (K. pneumoniae SI-KP NO30) was 0.06 µg/mL, the “MIC of cefalexin (LEX)” value (E. coli 3327) was 0.5 µg/mL and the “MIC of cefdinir (CDR)” value (E. coli 3327) was 0.5 µg/mL. The “MIC of cefixime (CFM)” value (E. coli 3327) was 2 µg/mL, the “MIC of ceftibuten (CTB)” value (E. coli 3327) was 1 µg/mL and the “MIC of cefalexin (LEX)” value (K. pneumoniae ESBL 8 #2) was 0.125 µg/mL. The “MIC of cefdinir (CDR)” value (K. pneumoniae ESBL 8 #2) was 0.125 µg/mL, the “MIC of cefixime (CFM)” value (K. pneumoniae ESBL 8 #2) was 0.03 µg/mL and the “MIC of ceftibuten (CTB)” value (K. pneumoniae ESBL 8 #2) was 0.06 µg/mL.
